Legend:
Assay in all cases: KinomeScan kinase panel
Type in all cases: binding
[1] = molecular target: T1, ALK (Homo sapiens, UniProt Q9UM73)
T1 construct: purchased DiscoveRx Corporation (KinomeScan)
Summary of the method: (§1)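 Values come from one concentration only (1000 nM) within a broad 442-kinase KinomeScan screen.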

[2] = molecular target: T2, MLCK (Homo sapiens, UniProt Q32MK0)
T2 construct: purchased DiscoveRx Corporation (KinomeScan)
Summary of the method: as §1

[3] = molecular target: T3, MAP4K5 (Homo sapiens, UniProt Q9Y4K4)
T3 construct: purchased DiscoveRx Corporation (KinomeScan)
Summary of the method: as §1

[4] = molecular target: T4, P38-delta (Homo sapiens, UniProt O15264)
T4 construct: purchased DiscoveRx Corporation (KinomeScan panel)
Summary of the method: as §1

[5] = molecular target: T5, CAMK4 (Homo sapiens, UniProt Q16566)
T5 construct: purchased DiscoveRx Corporation (KinomeScan)
Summary of the method: as §1

[6] = molecular target: T6, IKK-alpha (Homo sapiens, UniProt O15111)
T6 construct: purchased DiscoveRx Corporation (KinomeScan)
Summary of the method: as §1

[7] = molecular target: T7, PRKD1 (Homo sapiens, UniProt Q15139)
T7 construct: purchased DiscoveRx Corporation (KinomeScan)
Summary of the method: as §1

[8] = molecular target: T8, SLK (Homo sapiens, UniProt Q9H2G2)
T8 construct: purchased DiscoveRx Corporation (KinomeScan)
Summary of the method: as §1

[9] = molecular target: T9, PRKCD (Homo sapiens, UniProt Q05655)
T9 construct: purchased DiscoveRx Corporation (KinomeScan)
Summary of the method: as §1

[10] = molecular target: T10, ABL1(F317L)-nonphosphorylated (Homo sapiens, UniProt P00519, F317L)
T10 construct: purchased DiscoveRx Corporation (KinomeScan)
Summary of the method: as §1

[11] = molecular target: T11, PIK3CA (H1047Y) (Homo sapiens, UniProt P42336, H1047Y)
T11 construct: purchased DiscoveRx Corporation (KinomeScan)
Summary of the method: as §1

[12] = molecular target: T12, MARK2 (Homo sapiens, UniProt Q7KZI7)
T12 construct: purchased DiscoveRx Corporation (KinomeScan)
Summary of the method: as §1

[13] = molecular target: T13, CSNK1G3 (Homo sapiens, UniProt Q9Y6M4)
T13 construct: purchased DiscoveRx Corporation (KinomeScan)
Summary of the method: as §1

[14] = molecular target: T14, AURKC (Homo sapiens, UniProt Q9UQB9)
T14 construct: purchased DiscoveRx Corporation (KinomeScan)
Summary of the method: as §1

[15] = molecular target: T15, DMPK2 (Homo sapiens, UniProt Q6DT37)
T15 construct: purchased DiscoveRx Corporation (KinomeScan)
Summary of the method: as §1

[16] = molecular target: T16, MEK6 (Homo sapiens, UniProt P52564)
T16 construct: purchased DiscoveRx Corporation (KinomeScan)
Summary of the method: as §1

[17] = molecular target: T17, ACVR2B (Homo sapiens, UniProt Q13705)
T17 construct: purchased DiscoveRx Corporation (KinomeScan)
Summary of the method: as §1

[18] = molecular target: T18, MLK2 (Homo sapiens, UniProt Q02779)
T18 construct: purchased DiscoveRx Corporation (KinomeScan)
Summary of the method: as §1

[19] = molecular target: T19, CDKL3 (Homo sapiens, UniProt Q8IVW4)
T19 construct: purchased DiscoveRx Corporation (KinomeScan)
Summary of the method: as §1

[20] = molecular target: T20, EGFR(L861Q) (Homo sapiens, UniProt P00533, L861Q)
T20 construct: purchased DiscoveRx Corporation (KinomeScan)
Summary of the method: as §1

[21] = molecular target: T21, PRKG1 (Homo sapiens, UniProt Q13976)
T21 construct: purchased DiscoveRx Corporation (KinomeScan)
Summary of the method: as §1

[22] = molecular target: T22, ERK5 (Homo sapiens, UniProt Q13164)
T22 construct: purchased DiscoveRx Corporation (KinomeScan)
Summary of the method: as §1

[23] = molecular target: T23, SRC (Homo sapiens, UniProt P12931)
T23 construct: purchased DiscoveRx Corporation (KinomeScan)
Summary of the method: as §1

[24] = molecular target: T24, NEK2 (Homo sapiens, UniProt P51955)
T24 construct: purchased DiscoveRx Corporation (KinomeScan)
Summary of the method: as §1

[25] = molecular target: T25, BRSK1 (Homo sapiens, UniProt Q8TDC3)
T25 construct: purchased DiscoveRx Corporation (KinomeScan)
Summary of the method: as §1

[26] = molecular target: T26, CASK (Homo sapiens, UniProt O14936)
T26 construct: purchased DiscoveRx Corporation (KinomeScan)
Summary of the method: as §1

[27] = molecular target: T27, ABL1(F317I)-phosphorylated (Homo sapiens, UniProt P00519, F317I)
T27 construct: purchased DiscoveRx Corporation (KinomeScan)
Summary of the method: as §1

[28] = molecular target: T28, TNK2 (Homo sapiens, UniProt Q07912)
T28 construct: purchased DiscoveRx Corporation (KinomeScan)
Summary of the method: as §1

[29] = molecular target: T29, NIM1 (Homo sapiens, UniProt Q8IY84)
T29 construct: purchased DiscoveRx Corporation (KinomeScan panel)
Summary of the method: as §1

[30] = molecular target: T30, TRKC (Homo sapiens, UniProt Q16288)
T30 construct: purchased DiscoveRx Corporation (KinomeScan)
Summary of the method: as §1

[31] = molecular target: T31, TAOK3 (Homo sapiens, UniProt Q9H2K8)
T31 construct: purchased DiscoveRx Corporation (KinomeScan)
Summary of the method: as §1

[32] = molecular target: T32, LKB1 (Homo sapiens, UniProt Q15831)
T32 construct: purchased DiscoveRx Corporation (KinomeScan)
Summary of the method: as §1

[33] = molecular target: T33, AMPK-alpha2 (Homo sapiens, UniProt P54646)
T33 construct: purchased DiscoveRx Corporation (KinomeScan)
Summary of the method: as §1

[34] = molecular target: T34, DCAMKL3 (Homo sapiens, UniProt Q9C098)
T34 construct: purchased DiscoveRx Corporation (KinomeScan)
Summary of the method: as §1

[35] = molecular target: T35, DYRK1A (Homo sapiens, UniProt Q13627)
T35 construct: purchased DiscoveRx Corporation (KinomeScan)
Summary of the method: as §1

[36] = molecular target: T36, MAP3K3 (Homo sapiens, UniProt Q99759)
T36 construct: purchased DiscoveRx Corporation (KinomeScan)
Summary of the method: as §1

T8 sequence (Q9H2G2 whole entry): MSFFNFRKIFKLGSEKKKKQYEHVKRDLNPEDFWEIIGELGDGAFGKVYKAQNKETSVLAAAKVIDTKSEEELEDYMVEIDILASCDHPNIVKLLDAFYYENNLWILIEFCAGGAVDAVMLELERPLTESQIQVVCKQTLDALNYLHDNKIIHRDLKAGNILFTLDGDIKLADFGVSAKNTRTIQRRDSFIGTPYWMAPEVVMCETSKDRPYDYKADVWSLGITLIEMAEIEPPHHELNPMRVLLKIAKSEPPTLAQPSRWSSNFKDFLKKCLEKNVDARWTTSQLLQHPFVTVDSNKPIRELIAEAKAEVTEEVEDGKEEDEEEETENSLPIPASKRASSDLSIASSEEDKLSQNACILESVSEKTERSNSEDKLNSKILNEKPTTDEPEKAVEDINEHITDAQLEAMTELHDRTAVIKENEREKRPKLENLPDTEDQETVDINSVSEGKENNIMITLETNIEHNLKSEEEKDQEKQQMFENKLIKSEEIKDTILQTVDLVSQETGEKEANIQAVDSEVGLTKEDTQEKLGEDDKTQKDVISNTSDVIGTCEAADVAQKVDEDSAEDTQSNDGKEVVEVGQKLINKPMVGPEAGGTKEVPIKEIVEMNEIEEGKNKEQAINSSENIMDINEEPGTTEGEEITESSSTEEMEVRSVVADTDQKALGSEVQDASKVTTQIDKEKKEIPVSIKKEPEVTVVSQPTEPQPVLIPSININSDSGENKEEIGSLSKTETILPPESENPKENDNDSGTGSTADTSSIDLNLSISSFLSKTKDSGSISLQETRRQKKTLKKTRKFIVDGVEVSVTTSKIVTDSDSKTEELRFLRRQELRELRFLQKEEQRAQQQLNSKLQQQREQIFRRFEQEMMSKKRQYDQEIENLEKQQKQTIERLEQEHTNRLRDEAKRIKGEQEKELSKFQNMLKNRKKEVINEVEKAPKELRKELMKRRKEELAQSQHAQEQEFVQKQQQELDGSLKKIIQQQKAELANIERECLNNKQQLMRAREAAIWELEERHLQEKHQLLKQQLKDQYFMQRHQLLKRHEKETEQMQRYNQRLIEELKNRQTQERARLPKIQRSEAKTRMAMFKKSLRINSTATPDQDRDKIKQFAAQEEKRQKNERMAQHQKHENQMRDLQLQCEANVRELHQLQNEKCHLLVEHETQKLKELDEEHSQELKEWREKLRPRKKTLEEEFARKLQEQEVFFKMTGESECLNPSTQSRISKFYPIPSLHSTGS
T9 sequence (Q05655 whole entry): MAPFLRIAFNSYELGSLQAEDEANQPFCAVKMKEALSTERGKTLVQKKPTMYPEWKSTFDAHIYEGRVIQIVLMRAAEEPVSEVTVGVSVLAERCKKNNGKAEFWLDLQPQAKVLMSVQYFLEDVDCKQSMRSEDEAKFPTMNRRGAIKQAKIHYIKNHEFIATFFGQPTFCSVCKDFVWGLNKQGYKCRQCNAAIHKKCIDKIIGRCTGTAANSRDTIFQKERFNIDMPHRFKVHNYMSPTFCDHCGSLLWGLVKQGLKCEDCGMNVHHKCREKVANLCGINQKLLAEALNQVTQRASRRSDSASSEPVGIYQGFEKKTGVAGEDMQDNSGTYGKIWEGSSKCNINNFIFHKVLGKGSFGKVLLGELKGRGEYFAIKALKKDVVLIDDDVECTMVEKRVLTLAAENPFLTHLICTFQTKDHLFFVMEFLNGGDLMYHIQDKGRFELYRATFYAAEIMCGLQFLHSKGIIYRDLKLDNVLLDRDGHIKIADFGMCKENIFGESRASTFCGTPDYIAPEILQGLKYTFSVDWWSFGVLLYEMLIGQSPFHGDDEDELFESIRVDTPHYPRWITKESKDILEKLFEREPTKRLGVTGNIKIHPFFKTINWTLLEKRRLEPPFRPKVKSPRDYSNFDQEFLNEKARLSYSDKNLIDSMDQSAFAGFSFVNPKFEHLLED
T34 sequence (Q9C098 whole entry): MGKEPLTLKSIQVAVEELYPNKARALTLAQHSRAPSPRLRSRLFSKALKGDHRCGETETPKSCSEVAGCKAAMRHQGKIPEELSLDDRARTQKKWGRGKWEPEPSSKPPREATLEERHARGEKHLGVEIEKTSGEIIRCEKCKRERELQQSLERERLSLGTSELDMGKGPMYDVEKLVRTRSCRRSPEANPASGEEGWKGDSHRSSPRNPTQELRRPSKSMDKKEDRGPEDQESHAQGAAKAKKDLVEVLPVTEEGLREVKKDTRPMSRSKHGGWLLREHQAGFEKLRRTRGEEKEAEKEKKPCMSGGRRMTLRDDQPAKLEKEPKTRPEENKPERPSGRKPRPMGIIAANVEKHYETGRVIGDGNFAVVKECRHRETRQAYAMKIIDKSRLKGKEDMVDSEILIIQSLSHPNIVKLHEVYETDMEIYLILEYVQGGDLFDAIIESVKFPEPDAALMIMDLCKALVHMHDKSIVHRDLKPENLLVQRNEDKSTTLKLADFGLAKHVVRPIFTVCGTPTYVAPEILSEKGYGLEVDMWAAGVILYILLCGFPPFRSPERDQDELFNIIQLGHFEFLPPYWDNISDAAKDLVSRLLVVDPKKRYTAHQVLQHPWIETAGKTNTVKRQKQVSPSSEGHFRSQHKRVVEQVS
T11 sequence (P42336 whole entry H1047Y): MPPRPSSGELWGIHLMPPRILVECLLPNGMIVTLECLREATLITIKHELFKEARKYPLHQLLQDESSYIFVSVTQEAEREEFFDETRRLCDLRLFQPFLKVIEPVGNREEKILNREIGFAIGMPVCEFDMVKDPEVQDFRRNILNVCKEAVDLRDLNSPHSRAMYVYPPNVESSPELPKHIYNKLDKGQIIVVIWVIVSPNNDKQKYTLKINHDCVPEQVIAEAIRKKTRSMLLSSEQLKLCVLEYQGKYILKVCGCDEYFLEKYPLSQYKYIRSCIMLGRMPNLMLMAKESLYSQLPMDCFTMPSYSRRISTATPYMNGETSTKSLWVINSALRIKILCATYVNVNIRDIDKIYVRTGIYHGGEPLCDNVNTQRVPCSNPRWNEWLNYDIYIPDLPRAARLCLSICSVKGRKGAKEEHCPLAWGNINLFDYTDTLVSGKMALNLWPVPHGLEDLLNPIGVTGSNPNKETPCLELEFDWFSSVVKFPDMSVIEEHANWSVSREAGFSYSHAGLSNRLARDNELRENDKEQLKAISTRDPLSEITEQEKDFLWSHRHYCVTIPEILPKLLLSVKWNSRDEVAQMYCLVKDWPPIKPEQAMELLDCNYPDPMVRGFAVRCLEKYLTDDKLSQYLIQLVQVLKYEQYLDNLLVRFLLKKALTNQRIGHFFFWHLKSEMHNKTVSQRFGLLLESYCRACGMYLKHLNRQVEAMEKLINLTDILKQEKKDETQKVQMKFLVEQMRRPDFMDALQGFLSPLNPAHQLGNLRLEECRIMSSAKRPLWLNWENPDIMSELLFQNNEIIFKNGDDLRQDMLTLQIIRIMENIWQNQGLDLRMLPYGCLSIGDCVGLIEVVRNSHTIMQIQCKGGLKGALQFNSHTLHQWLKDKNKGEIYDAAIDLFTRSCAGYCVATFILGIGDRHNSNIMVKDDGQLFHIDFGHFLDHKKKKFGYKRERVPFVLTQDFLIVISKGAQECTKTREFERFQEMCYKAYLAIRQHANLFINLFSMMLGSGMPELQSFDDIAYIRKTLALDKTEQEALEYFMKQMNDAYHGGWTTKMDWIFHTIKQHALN
T36 sequence (Q99759 whole entry): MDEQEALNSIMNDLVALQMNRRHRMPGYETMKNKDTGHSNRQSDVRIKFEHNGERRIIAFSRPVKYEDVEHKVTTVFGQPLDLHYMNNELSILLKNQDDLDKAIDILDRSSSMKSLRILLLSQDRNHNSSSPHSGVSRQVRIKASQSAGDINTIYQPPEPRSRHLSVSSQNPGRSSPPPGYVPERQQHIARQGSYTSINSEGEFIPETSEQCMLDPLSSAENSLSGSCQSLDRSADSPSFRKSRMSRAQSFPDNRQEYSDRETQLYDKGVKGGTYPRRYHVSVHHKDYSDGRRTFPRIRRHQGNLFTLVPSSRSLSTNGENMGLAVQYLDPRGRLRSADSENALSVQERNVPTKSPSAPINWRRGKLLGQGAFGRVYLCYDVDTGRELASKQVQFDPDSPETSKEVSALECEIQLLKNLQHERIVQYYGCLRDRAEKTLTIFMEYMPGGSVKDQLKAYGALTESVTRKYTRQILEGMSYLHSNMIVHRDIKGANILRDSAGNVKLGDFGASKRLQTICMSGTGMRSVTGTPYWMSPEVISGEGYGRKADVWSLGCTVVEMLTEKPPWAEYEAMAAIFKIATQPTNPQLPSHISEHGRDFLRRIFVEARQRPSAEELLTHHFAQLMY
T30 sequence (Q16288 32-839): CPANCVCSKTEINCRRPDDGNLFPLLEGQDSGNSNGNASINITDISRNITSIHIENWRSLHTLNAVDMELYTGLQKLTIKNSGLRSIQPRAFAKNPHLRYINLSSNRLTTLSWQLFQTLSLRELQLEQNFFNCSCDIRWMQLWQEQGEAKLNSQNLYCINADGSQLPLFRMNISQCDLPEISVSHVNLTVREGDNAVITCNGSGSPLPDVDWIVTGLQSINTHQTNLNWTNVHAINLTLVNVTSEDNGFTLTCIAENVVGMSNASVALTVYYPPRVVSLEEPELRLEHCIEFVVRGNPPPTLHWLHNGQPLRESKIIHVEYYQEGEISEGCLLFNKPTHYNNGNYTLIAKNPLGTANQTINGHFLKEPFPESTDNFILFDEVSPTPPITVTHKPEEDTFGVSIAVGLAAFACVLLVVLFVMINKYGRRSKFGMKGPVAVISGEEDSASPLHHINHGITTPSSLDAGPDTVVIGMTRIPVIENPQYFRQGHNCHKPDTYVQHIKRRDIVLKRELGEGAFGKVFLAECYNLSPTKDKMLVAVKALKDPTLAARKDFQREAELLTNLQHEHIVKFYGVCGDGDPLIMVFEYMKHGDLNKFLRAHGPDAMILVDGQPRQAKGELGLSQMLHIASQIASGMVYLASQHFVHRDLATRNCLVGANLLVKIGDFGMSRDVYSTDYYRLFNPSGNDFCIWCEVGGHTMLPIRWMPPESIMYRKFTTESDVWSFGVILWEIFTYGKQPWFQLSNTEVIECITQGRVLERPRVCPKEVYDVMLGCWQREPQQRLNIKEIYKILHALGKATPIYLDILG

CCOP(=O)(CN1CCC(COc2cc3nccc(Oc4ccc(NC(=O)C5(C(=O)Nc6ccc(F)cc6)CC5)cc4F)c3cc2OC)CC1)OCC [Example 10, N1-[4-[[7-[[1-(diethoxyphosphorylmethyl)-4-piperidinyl]methoxyl]-6-methoxyl-4-quinolyl]oxyl]-3-fluorophenyl]-N1′-(4-fluorophenyl)cyclopropane-1,1-dicarboxamide]
% Ctrl@1000 nM [1]: 15 % Ctrl
% Ctrl@1000 nM [2]: 100 % Ctrl
% Ctrl@1000 nM [3]: 2.8 % Ctrl
% Ctrl@1000 nM [4]: 53 % Ctrl
% Ctrl@1000 nM [5]: 100 % Ctrl
% Ctrl@1000 nM [6]: 100 % Ctrl
% Ctrl@1000 nM [7]: 100 % Ctrl
% Ctrl@1000 nM [8]: 7.4 % Ctrl
% Ctrl@1000 nM [9]: 100 % Ctrl
% Ctrl@1000 nM [10]: 10 % Ctrl
% Ctrl@1000 nM [11]: 63 % Ctrl
% Ctrl@1000 nM [12]: 100 % Ctrl
% Ctrl@1000 nM [13]: 100 % Ctrl
% Ctrl@1000 nM [14]: 66 % Ctrl
% Ctrl@1000 nM [15]: 76 % Ctrl
% Ctrl@1000 nM [16]: 87 % Ctrl
% Ctrl@1000 nM [17]: 100 % Ctrl
% Ctrl@1000 nM [18]: 78 % Ctrl
% Ctrl@1000 nM [19]: 100 % Ctrl
% Ctrl@1000 nM [20]: 84 % Ctrl
% Ctrl@1000 nM [21]: 100 % Ctrl
% Ctrl@1000 nM [22]: 100 % Ctrl
% Ctrl@1000 nM [23]: 3.2 % Ctrl
% Ctrl@1000 nM [24]: 100 % Ctrl
% Ctrl@1000 nM [25]: 100 % Ctrl
% Ctrl@1000 nM [26]: 100 % Ctrl
% Ctrl@1000 nM [27]: 70 % Ctrl
% Ctrl@1000 nM [28]: 94 % Ctrl
% Ctrl@1000 nM [29]: 100 % Ctrl
% Ctrl@1000 nM [30]: 2.2 % Ctrl
% Ctrl@1000 nM [31]: 100 % Ctrl
% Ctrl@1000 nM [32]: 100 % Ctrl
% Ctrl@1000 nM [33]: 100 % Ctrl
% Ctrl@1000 nM [34]: 100 % Ctrl
% Ctrl@1000 nM [35]: 100 % Ctrl
% Ctrl@1000 nM [36]: 100 % Ctrl
